From ChEMBL document CHEMBL4495565, “Cytopathic SARS-Cov2 screening on VERO-E6 cells in a large repurposing effort” (2020)
Values joined by “and” are separate entries in the source; they are usually repeats but may differ in a detail not shown here. Equal entries are not always repeated. Structures can show the parent of a compound that is named as a salt.

Tests used:
SARS-CoV-2 = experiment: microbe, parasite or virus in culture; assay type: functional, organism-based, Chlorocebus sabaeus, Vero C1008
in vitro [1] = details: chlorocebus sabaeus
in vitro [2] = details: chlorocebus sabaeus; remark: listed apart in the source
[3] = Severe acute respiratory syndrome coronavirus 2, Vero C1008, 48 h
[4] = VERO-E6 cells (Vero C1008), uninfected, CC50
[5] = VERO-E6 cells, Selectivity index

Compound	IC50 (SARS-CoV-2; [3]) [µM]	CC50 at 48 h (in vitro [1]; [4]) [µM]	selectivity ratio (in vitro [2]; [5])	CC50 at 48 h (in vitro [1]; vero c1008, CC50) [µM]	selectivity ratio (in vitro [2]; vero c1008, Selectivity index)	IC50 (SARS-CoV-2; vero c1008)
N#Cc1cc2c(OCC(O)CN3CCN(C(c4ccccc4)c4ccccc4)CC3)cccc2[nH]1 (racemic; form 1)	25.6	12.7	0.49			
O=c1cc(N2CCOCC2)oc2c(-c3cccc4c3sc3ccccc34)cccc12	3.79	0.58	0.15			
Nc1nccc2c1ncn2[C@@H]1C=C(CO)[C@@H](O)[C@H]1O	2.07	0.3	0.14			
COc1ccc(C[C@H]2NC[C@H](O)[C@H]2OC(C)=O)cc1 [ANISOMYCIN]	0.09		1.11	0.1		
COC(=O)C[C@@](O)(CCC(C)(C)O)C(=O)O[C@@H]1C(OC)=C[C@]23CCCN2CCc2cc4c(cc2[C@@H]13)OCO4	0.79	1.94	2.46			
CCN(CC)Cc1cc(Nc2ccnc3cc(Cl)ccc23)ccc1O [AMODIAQUINE]	4.07	16.8	4.12			
COCCNCc1ccc(-c2cc3nccc(Oc4ccc(NC(=S)NC(=O)Cc5ccc(F)cc5)cc4F)c3s2)nc1 [GLESATINIB]	1.04	0.64	0.62			
O[C@@H](COc1cccc2ncccc12)CN1CCN([C@@H]2c3ccccc3[C@@H]3[C@H](c4ccccc42)C3(F)F)CC1 [ZOSUQUIDAR TRIHYDROCHLORIDE]	8.4			9.11	1.08	
Cc1ccc(Nc2ncc3c(n2)N(C)C(=O)N(c2cc(NC(=O)c4cccc(C(F)(F)F)c4)ccc2C)C3)cn1	5.21	0.61	0.12			
CC(C)(C)c1ccccc1Oc1ncccc1NC(=O)Nc1ccc(OC(F)(F)F)cc1	7	9.9	1.41			
Cc1cc2c(F)c(Oc3ncnn4cc(OC[C@@H](C)OC(=O)[C@H](C)N)c(C)c34)ccc2[nH]1 [BRIVANIB ALANINATE]	6.5	2.58	0.4			
CC(C)n1nc(-c2cc3cc(O)ccc3[nH]2)c2c(N)ncnc21	> 33			1.63	0.05	
Cc1[nH]c(/C=C2\C(=O)Nc3cc(-c4ccccc4)ccc32)c(C)c1CCC(=O)O	4.1	0.03	0.01			
Cc1cnc(Nc2ccc(F)cc2Cl)nc1-c1c[nH]c(C(=O)N[C@H](CO)c2cccc(Cl)c2)c1	5.54	1.92	0.35			
CC(C)C[C@H](NC(=O)[C@@H](NC(=O)c1cccc(-c2ccccc2)n1)[C@@H](C)O)B(O)O [DELANZOMIB]	1.3	0.46	0.35			
CC(C)C[C@H](NC(=O)CNC(=O)c1cc(Cl)ccc1Cl)B(O)O [IXAZOMIB]	> 33	2.7				
OCCCNc1cc(-c2ccnc(Nc3cccc(Cl)c3)n2)ccn1	7.9	8.17	1.03			
CCCCCCCCCCCCCCOc1ccc(C(=O)O)o1 [TOFA]	4.04	> 33				
Nc1ncnc2c1c(-c1cnc3[nH]ccc3c1)nn2C1CCCC1	11.8	8.95	0.76			
Cc1c(O)cccc1C(=O)NC(CSc1ccccc1)C(O)CN1CC2CCCCC2CC1C(=O)NC(C)(C)C (stereo not drawn)	14.3	> 33				

Compound	IC50 (SARS-CoV-2; [3]) [µM]	CC50 at 48 h (in vitro [1]; [4]) [µM]	selectivity ratio (in vitro [2]; [5])	CC50 at 48 h (in vitro [1]; vero c1008, CC50) [µM]	selectivity ratio (in vitro [2]; vero c1008, Selectivity index)	IC50 (SARS-CoV-2; vero c1008)
COc1cc(/C=C2\SC(=O)NC2=O)ccc1Oc1ccc(C#N)cc1C(F)(F)F	> 33	3.33				
O=C(O)c1ccc(N2C(=O)/C(=C/c3ccc(-c4ccc([N+](=O)[O-])cc4)o3)C=C2c2ccccc2)cc1	> 33	12.8				
CC(=O)[C@]1(N)Cc2c(O)c3c(c(O)c2[C@@H](O[C@H]2C[C@H](O)[C@H](O)CO2)C1)C(=O)c1ccccc1C3=O [AMRUBICIN]	0.33	> 33				
CN1CCN(C2CCN(C(=O)Nc3cc(Oc4ccc(NC(=O)C5(C(=O)Nc6ccc(F)cc6)CC5)c(F)c4)ccn3)CC2)CC1 [GOLVATINIB]	5.89	> 33				
Cc1[nH]c(/C=C2\C(=O)Nc3ccc(S(=O)(=O)N(C)c4cccc(Cl)c4)cc32)c(C)c1C(=O)N1CCN(C)CC1	10.9	10.4	0.96			
c1ccc(-c2ccc(CNc3nc(-c4ccccn4)nnc3-c3ccccc3)cc2)cc1	31.9	0.02				
Cc1cc(N2C[C@@H](C)N[C@@H](C)C2)ncc1-c1ccc(-c2nc3c(ccn3C)c(=O)[nH]2)cc1	> 33	7.14				
Nc1c(C(=O)NCc2ccco2)c2nc3ccccc3nc2n1CCN1CCCCC1	31.2	> 33				
CCCCOCCOc1ccc(-c2ccc3c(c2)/C=C(/C(=O)Nc2ccc([S@@+]([O-])Cc4cncn4CCC)cc2)CCCN3CC(C)C)cc1 [CENICRIVIROC]	> 33	11.7				
CC(C)(C)c1cc(/C=C(\C#N)C(N)=S)cc(C(C)(C)C)c1O [TYRPHOSTIN AG 879]	> 33	> 33				
Cc1c(C(=O)c2cccc3ccccc23)c2cccc3c2n1[C@H](CN1CCOCC1)CO3 [WIN-552122]	> 33	7.06				
Nc1cc2c3ccccc3ccc2c2ccccc12	11.6	> 33				
CC(C)c1cccc2c(-c3ccccc3)cc(-c3ccc(-c4ccc(C(=O)O)cc4)[nH]3)nc12	> 33	> 33				
O=C(c1ccc(OCCN2CCCCC2)cc1)c1c(-c2ccc(O)cc2)sc2cc(O)ccc12 [RALOXIFENE HYDROCHLORIDE]	15.4	> 33				
Cc1c(CN2CCN(C(=O)[C@H](C)O)CC2)sc2c(N3CCOCC3)nc(-c3cnc(N)nc3)nc12 [APITOLISIB]	2.31	0.5	0.22			
CN(C)c1cccc(-c2c3c(=O)n(-c4ccccc4Cl)[nH]c3cc(=O)n2C)c1 [SETANAXIB]	11.8			14.8	1.26	
CNC(=O)Nc1ccc(-c2nc(N3CC4CCC(C3)O4)c3cnn(C4CCC5(CC4)OCCO5)c3n2)cc1	21.6	0.18	0.01			
CC(C)(C)c1cc(C=C(C#N)C#N)cc(Br)c1O	8.77	10.4	1.18			
C/C(=C\c1ccc(C(=O)O)cc1)c1ccc2c(c1)C(C)(C)CCC2(C)C	> 33	4.07				
O=C(Nc1ccc([N+](=O)[O-])cc1Cl)c1cc(Cl)ccc1O [NICLOSAMIDE]				> 33		4.1 µM and > 33 µM

Compound	IC50 (SARS-CoV-2; [3]) [µM]	CC50 at 48 h (in vitro [1]; [4]) [µM]	selectivity ratio (in vitro [2]; [5])	CC50 at 48 h (in vitro [1]; vero c1008, CC50) [µM]	selectivity ratio (in vitro [2]; vero c1008, Selectivity index)	IC50 (SARS-CoV-2; vero c1008)
C=CC(=O)N1CCC(Oc2cc3c(Nc4ccc(Cl)c(Cl)c4F)ncnc3cc2OC)CC1 [POZIOTINIB]	> 33	11.5				
C/C=C/C[C@@H](C)C(=O)[C@H]1C(=O)N[C@@H](C(C)C)C(=O)N(C)CC(=O)N(C)[C@@H](CC(C)C)C(=O)N[C@@H](C(C)C)C(=O)N(C)[C@@H](CC(C)C)C(=O)N[C@@H](C)C(=O)N[C@H](C)C(=O)N(C)[C@@H](CC(C)C)C(=O)N(C)[C@@H](CC(C)C)C(=O)N(C)[C@@H](C(C)C)C(=O)N1C [VALSPODAR]	> 33	13.4				
C[C@@H](OC[C@@]1(c2ccccc2)CC[C@]2(CCC(=O)N2)CN1)c1cc(C(F)(F)F)cc(C(F)(F)F)c1 [ROLAPITANT]	19.6	> 33				
CCS(=O)(=O)c1ccc(CC(=O)Nc2cc(Cl)c(-c3ccccc3OC(F)(F)F)c(Cl)c2)cc1	21	12.1	0.58			
COc1cc(C[C@H]2c3cc(OC)c(OC)cc3CCN2C)c(Oc2cc3c(cc2OC)-c2c(OC)c(OC)cc4c2[C@H](C3)N(C)CC4)cc1OC [THALICARPINE]	3.87	> 33	8.53			
Cc1ncc(NC(=O)c2ccc(CN3CCN(C)CC3)c(C(F)(F)F)c2)cc1Nc1nccc(-c2cccnc2)n1 [FLUMATINIB]	> 33	> 33				
CC1=C(/C=C/C(C)=C/C=C/C(C)=C/C(=O)Nc2ccc(O)cc2)C(C)(C)CCC1 [FENRETINIDE]	> 33	10.5				
Cc1nc2cnc3ccc(C#Cc4cccnc4)cc3c2n1-c1ccc(C(C)(C)C#N)cc1	0.11	0.11	1			
O=C(C1CC1)N1CC[C@@H](Cc2n[nH]c(=O)n2-c2ccc(-c3ccc4occc4c3)cc2)C1	17			> 33	1.94	
COc1ccc(CNc2nc(N(CCO)CCO)nc3c2ncn3C(C)C)cc1	7.95	6.49	0.82			
COc1ccc(-c2c[nH]c3nccc(-c4ccsc4)c23)c(OC)c1	15.8	0.82	0.05			
CC(C)(C)C(=O)/C(=C/c1cccc([N+](=O)[O-])c1)n1cncn1	4.33	5.31	1.23			
Cc1cc(O)c2c(=O)c3c(O)cc(O)c4c5c(O)cc(O)c6c(=O)c7c(O)cc(C)c8c1c2c(c34)c(c78)c65 [HYPERICIN]	0.25	1.31	5.24			
CC(C)[C@H]1c2ccc(F)cc2CC[C@@]1(CCN(C)CCCc1nc2ccccc2[nH]1)OC(=O)C1CC1	8.21	8.13	0.99			
Clc1ccccc1CNC[C@H]1CC[C@H](CNCc2ccccc2Cl)CC1	22.7	30.9	1.36			
CCN1CCN(Cc2ccc(-c3cc4c(N[C@H](C)c5ccccc5)ncnc4[nH]3)cc2)CC1 [AEE-788]	3.94	> 33				
Cc1cc([N+](=O)[O-])ccc1NS(=O)(=O)c1cc(Cl)ccc1Cl	> 33	16.6				
CC[n+]1c(-c2ccccc2)c2cc(N)ccc2c2ccc(N)cc21 [HOMIDIUM]	> 33	2.04				
